The source of these data is patent US20250205191A1, “R(-)-MDMA COMPOSITIONS AND METHODS OF TREATMENT” (EmpathBio, Inc., priority 2023, published 2025).

pEC50: −log10 of the molar value.

Data set [1] relates to healthy volunteers. The following applies: published report (Hysek et al., 2014); cited from earlier work.
The subject of data set [2] is healthy volunteers. The following applies: racemic MDMA at 125 mg, comparison in FIG. 11; cited from earlier work.
The target in another data set is T1, human 5-HT2B receptor (Homo sapiens, UniProt P41595).
T1 construct: expressed in transfected cells; host or cells: CHO-K1
T1 sequence (P41595 whole entry): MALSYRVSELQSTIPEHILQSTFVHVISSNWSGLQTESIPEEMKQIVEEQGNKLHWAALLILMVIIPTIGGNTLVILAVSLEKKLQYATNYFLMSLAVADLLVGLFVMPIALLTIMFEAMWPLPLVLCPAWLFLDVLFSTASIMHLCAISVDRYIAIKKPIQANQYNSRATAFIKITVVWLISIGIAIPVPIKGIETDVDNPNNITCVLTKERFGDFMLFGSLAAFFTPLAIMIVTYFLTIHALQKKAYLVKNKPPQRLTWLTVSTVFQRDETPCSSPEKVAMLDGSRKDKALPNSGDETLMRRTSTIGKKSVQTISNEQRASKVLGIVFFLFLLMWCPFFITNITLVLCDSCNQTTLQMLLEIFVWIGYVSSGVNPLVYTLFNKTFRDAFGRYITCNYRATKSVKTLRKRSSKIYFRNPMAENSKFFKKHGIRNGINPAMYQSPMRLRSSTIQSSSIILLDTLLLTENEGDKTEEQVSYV
Nature of the data set: 5-HT2B agonism, inositol monophosphate accumulation (HTRF), CHO-K1 recombinant cells. Type of data set: cell-based. The following applies: 5-HT2B.

The target in another data set is T2, human 5-HT2A receptor (Homo sapiens, UniProt P28223).
T2 construct: expressed in transfected cells; host or cells: CHO-K1
T2 sequence (P28223 whole entry): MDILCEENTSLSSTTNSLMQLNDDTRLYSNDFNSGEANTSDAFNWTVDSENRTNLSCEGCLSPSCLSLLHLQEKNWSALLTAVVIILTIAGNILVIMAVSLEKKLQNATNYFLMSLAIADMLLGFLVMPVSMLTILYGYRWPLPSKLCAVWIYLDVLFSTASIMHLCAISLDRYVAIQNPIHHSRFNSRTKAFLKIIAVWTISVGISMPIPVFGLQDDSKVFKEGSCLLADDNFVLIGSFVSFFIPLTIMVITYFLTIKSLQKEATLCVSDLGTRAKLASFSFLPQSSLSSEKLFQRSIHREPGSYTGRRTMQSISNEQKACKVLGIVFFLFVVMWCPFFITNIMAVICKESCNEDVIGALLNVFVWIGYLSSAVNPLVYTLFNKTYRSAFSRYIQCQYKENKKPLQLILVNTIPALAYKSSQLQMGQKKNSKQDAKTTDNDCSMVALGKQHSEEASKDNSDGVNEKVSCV
The data set can be described thus: 5-HT2A agonism, inositol monophosphate accumulation (HTRF), CHO-K1 recombinant cells. The data set is classed as cell-based. The following applies: 5-HT2A.

Data set [3] addresses T3, human 5-HT2C (edited) receptor (Homo sapiens, UniProt P28335).
T3 sequence (P28335 33-458): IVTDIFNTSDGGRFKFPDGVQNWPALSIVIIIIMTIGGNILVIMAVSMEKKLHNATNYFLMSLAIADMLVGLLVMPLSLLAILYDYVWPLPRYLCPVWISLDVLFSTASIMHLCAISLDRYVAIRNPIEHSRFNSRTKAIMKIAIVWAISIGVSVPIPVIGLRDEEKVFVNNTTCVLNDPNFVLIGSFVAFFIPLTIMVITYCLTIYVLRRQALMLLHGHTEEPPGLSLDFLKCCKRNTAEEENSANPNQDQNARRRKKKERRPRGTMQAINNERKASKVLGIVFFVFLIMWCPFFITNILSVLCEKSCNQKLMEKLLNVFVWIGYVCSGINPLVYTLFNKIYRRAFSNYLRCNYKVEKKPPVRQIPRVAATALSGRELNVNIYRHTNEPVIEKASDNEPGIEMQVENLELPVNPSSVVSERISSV
The data set can be described thus: 5-HT2C (edited) agonism, inositol monophosphate accumulation (HTRF), CHO-K1 recombinant cells. Type of data set: cell-based. The following applies: 5-HT2C (edited); relative to α-Me-5-HT at its EC100.

For data set [4], the target named is T4, human 5-HT2C (non-edited) receptor (Homo sapiens, UniProt P28335).
T4 construct: expressed in transfected cells; host or cells: CHO-K1
T4 sequence (P28335 33-458): T3 sequence (P28335 33-458)
Nature of the data set: 5-HT2C (non-edited) agonism, inositol monophosphate accumulation (HTRF), CHO-K1 recombinant cells. The following applies: 5-HT2C (non-edited); relative to α-Me-5-HT at its EC100. The data set is classed as cell-based.

The subject of a further data set is male C57BL/6J mice. The data set can be described thus: Mouse extinction of fear learning assay. Type of data set: in vivo. The following applies: 7.8 mg/kg IP once, vs vehicle. The method, then: Extinction of fear learning in rodents is a useful assay to understand if compounds have the potential to enhance learning processes that may be involved in recovery from SAD and other stress and anxiety related disorders, due to its resemblance to exposure-based therapy in humans. […] Freezing behavior, an indicator of the fear response, was measured in the presence of the CS during the extinction training session (Day 1) and the day after (Day 2, Extinction Testing, in the absence of test article). Locomotor activity was measured during the initial 2-minute habituation period, prior to the presentation of the CS, on Days 1 and 2.

The nature of data set [5]: Phase 1 clinical study, plasma pharmacokinetics. The following applies: for AUC0-t / Cmax / t1/2: mean (SD); for Tmax: median (minimum, maximum).
A short description of data set [6]: Phase 1 clinical study, urine pharmacokinetics (urinalysis). The data set is classed as in vivo, human.
Data set [7] deals with rat embryonic cortical neurons. The data set can be described thus: In vitro rat cortical neurite outgrowth. The following applies: 250 nM positive control, vs vehicle. The data set is classed as cell-based. The method, then: The experiment included a 0.1% sterile water vehicle negative control condition and a 250 nM donepezil positive control condition, and the number of neurites per neuron, total neurite length per neuron and branchpoints per neuron from n=12 wells per treatment were compared to the vehicle control condition.

Where [8] appears, read: relative to α-Me-5-HT at its EC100.
Setting [9] is: plasma analyte after oral 125 mg R(−)-MDMA, Day 9.
The mark [10] stands for this setting: plasma analyte after single oral 75 mg R(−)-MDMA, Day 1.
[11] abbreviates: plasma analyte after single oral 125 mg R(−)-MDMA, Day 1.
Where [12] appears, read: plasma analyte after single oral 175 mg R(−)-MDMA, Day 1.
Where [13] appears, read: plasma analyte after single oral 225 mg R(−)-MDMA, Day 1.
The mark [14] stands for this setting: urine analyte after EMP-01 125 mg, Day 9.
Setting [15] is: urine analyte after single oral 75 mg R(−)-MDMA, Day 1.
The mark [16] stands for this setting: urine analyte after single oral 125 mg R(−)-MDMA, Day 1.
[17] abbreviates: urine analyte after single oral 175 mg R(−)-MDMA, Day 1.
The mark [18] stands for this setting: urine analyte after single oral 225 mg R(−)-MDMA, Day 1.

`CNC(C)Cc1ccc2c(c1)OCO2` (racemic) [Racemic MDMA, 3,4-methylenedioxymethamphetamine, reference compound]: in the data set on healthy volunteers [1], the “reduction of bias to angry faces” value is 12.5%. Further, in the data set with healthy volunteers [2], the 11D-ASC response profile result was “no visual hallucinations and little to no insight”. The pEC50 on human 5-HT2B receptor (CHO-K1, IP accumulation) was 6.71; at human 5-HT2A receptor (CHO-K1, IP accumulation), 5.33. Also, the “Efficacy (% of a-Me-5-HT response)” value on human 5-HT2B receptor (setting [8]) is on record as 91.2%; at human 5-HT2A receptor (setting [8]) it was 68.4%; in [3], 97.7%; in [4], 95.3%. In addition, in the data set with male C57BL/6J mice (30 min prior to extinction training), the freezing behavior result is “significantly reduced freezing behavior on Days 1 and 2”. Besides, the locomotor activity result with male C57BL/6J mice is “increased locomotor activity on Days 1 and 2”.
In the case of `C[C@@H](N)Cc1ccc2c(c1)OCO2` [R-MDA], in data set [5] (metabolite after oral R(−)-MDMA), the “time of peak of mean plasma concentration” value is recorded as “approximately 12 hours postdose”. In addition, the AUC0-t was 291.6730 (112.2988) h · ng/mL in data set [5] (setting [9]); 183.2765 (40.5712) h · ng/mL in data set [5] (setting [10]); 307.4702 (66.2889) h · ng/mL in data set [5] (setting [11]); 272.6761 (57.5614) h · ng/mL in data set [5] (setting [12]); 413.2388 (193.5541) h · ng/mL in data set [5] (setting [13]). The Cmax was 13.3733 (2.3199) ng/mL in data set [5] (setting [9]), 7.6733 (1.6139) ng/mL in data set [5] (setting [10]), 12.7950 (3.1122) ng/mL in [5] (setting [11]) and 11.2820 (2.1914) ng/mL in data set [5] (setting [12]). Also, the results for the t1/2 in [5] (setting [9]) and in data set [5] (setting [10]) were 143.1218 (145.7332) hr and 39.0473 (19.0557) hr, respectively. The Tmax in data set [5] (setting [9]) is 12.042 (12.00, 30.00) hr; in data set [5] (setting [10]), 12.000 (10.00, 12.00) hr; in data set [5] (setting [11]) it was 12.025 (12.00, 30.03) hr; in [5] (setting [12]), 18.000 (12.00, 18.00) hr; in data set [5] (setting [13]) it was 21.050 (18.00, 30.00) hr. Also, the “Ae12-24, amount excreted at the 12-24 hour collection interval” value in data set [6] (setting [14]) is 0.9794 (0.8552) mg; in data set [6] (setting [15]), 0.4622 (0.1101) mg; in data set [6] (setting [16]), 0.7850 (0.4299) mg; in data set [6] (setting [17]) it was 0.7076 (0.4510) mg; in data set [6] (setting [18]), 0.8450 (0.4995) mg. In addition, the “CAe, cumulative amount of drug excreted” value in data set [6] (setting [14]) is given as 0.9794 (0.8552) mg; in data set [6] (setting [15]), 0.8510 (0.2149) mg; in data set [6] (setting [16]) it was 1.1628 (0.4509) mg; in data set [6] (setting [17]) it was 1.4788 (0.8740) mg; in [6] (setting [18]), 1.9805 (0.8173) mg. The “CFe, cumulative fraction of drug excreted” value is recorded as 1.2746 (0.7265) % in data set [6] (setting [14]); 1.1347 (0.2865) % in data set [6] (setting [15]); 0.9302 (0.3608) % in data set [6] (setting [16]); 0.8450 (0.4995) % in [6] (setting [17]); 0.5432 (0.2708) % in data set [6] (setting [18]). The “CLr, renal clearance rate” value in data set [6] (setting [14]) is 5.3793 (1.5400) L/h; in data set [6] (setting [15]), 4.6787 (0.8471) L/h; in data set [6] (setting [16]), 3.7173 (0.9547) L/h; in data set [6] (setting [17]), 4.3945 (2.1019) L/h; in data set [6] (setting [18]), 5.1337 (2.2871) L/h. In addition, the “Fe12-24, fraction of drug excreted at the 12-24 hour collection interval” value in [6] (setting [14]) is 0.7835 (0.6842) %; in data set [6] (setting [15]) it was 0.6163 (0.1468) %; in [6] (setting [16]), 0.6280 (0.3440) %; in [6] (setting [17]), 0.4043 (0.2577) %; in [6] (setting [18]), 0.8802 (0.3633) %.
Consider `COc1cc2c(cc1OC)C(=O)C(CC1CCN(Cc3ccccc3)CC1)C2` (stereo not shown) [Donepezil, reference compound], for which, in data set [7], the branchpoints per neuron entry was “significantly and robustly increased”; the “number of neurites per neuron” value is “significantly and robustly increased”; the “total neurite length per neuron” value is “significantly and robustly increased”.
